The values that follow come from US10925915B2, “Use of a Copaifera extract to combat alopecia and seborrhea” (PIERRE FABRE DERMO-COSMETIQUE, priority 2017, dated 2021).

SMILES strings stand for the structures.

For the assay, the system named is 5α-reductase. Description: 5α-reductase activity of fibroblasts derived from human follicle dermal papillae ([C14]-testosterone metabolism to dihydrotestosterone). The format is cell-based. As to the method: The study is performed on human cells derived from donor follicle dermal papillae. This model is attractive since dermal papillae have the 5α2 isoform as in prostate tissue. The cells are seeded in 24-well plates and cultured for 24 hours in DMEM culture medium supplemented with L-glutamine (2 mM), penicillin (50 U/ml), streptomycin (50 μg/ml) and fatal calf serum (10%) under standard culture conditions (37° C. and 5% CO2). The culture medium is then replaced by a DMEM analytical medium supplemented with L-glutamine (2 mM), penicillin (50 U/ml), streptomycin (50 μg/ml) and fatal calf serum (1%). This analytical medium may contain or may not contain (control conditions) the products to be tested and a compound used as reference, finasteride (10 μM), for 24 h of pre-incubation. The cells were then treated with an analytical medium containing [C^14]-testosterone and containing or not containing (control conditions) the test or reference products, and the cells were incubated for 24 h under these conditions. After incubation, supernatants were collected for testosterone metabolism analysis. All experiments were carried out three times. The steroid molecules were extracted from the supernatants with a chloroform/methanol mixture. The organic phase was collected and the different molecular species (testosterone metabolites) were separated by thin-layer chromatography using a solvent system containing dichloromethane, ethylacetate and methanol. An autoradiography was performed on the chromatography and the transformed testosterone was estimated by densitometric analysis.
Thus, the metabolism of testosterone to dihydrotestosterone reflects the 5α-reductase activity and is evaluated by the dihydrotestosterone/testosterone ratio.

`CCCCCCCCCCCC(=O)OCC(O)CO` (stereo not drawn) [glyceryl laurate]: where the note is “40 μg/ml”, the “inhibition of 5α-reductase” value came out at 19%.
With `CC(C)(C)NC(=O)[C@H]1CC[C@H]2[C@@H]3CC[C@H]4NC(=O)C=C[C@]4(C)[C@H]3CC[C@]12C` [Finasteride, finasteride], the “5α-reductase inhibition, result in words” value is “strong inhibition”. Where the note is “10 μM, n = 3”, the “testosterone metabolism/dihydrotestosterone production (5α-reductase activity), change versus control = 100” value is reported as −77%.
